# From patent publication US9409914B2, “Triazolo[4,5-d]pyrimidine derivatives” (Merck Patent GmbH, priority 2012, dated 2016)
# Target: GCN2 (Homo sapiens, UniProt Q9P2K8)
# Test: GCN2 enzyme assay (TR-FRET Lanthascreen, phosphorylation of GFP-eIF2alpha)
# Type: biochemical
# Conditions: 10 μM ATP, 80 nM GFP-eIF2alpha, 30 nM GCN2, room temperature
# Text: GCN2: Assay principle & conditions
# This assay can quantificate the activity of the serin kinase GCN2 (general control non-derepressible-2).
# This kinase is involved in the stress metabolism of cells. It is activated upon starvation (amino acid depletion). Its natural substrate is eIF2a (eukaryotic initiation factor 2 alpha subunit), a translation factor, which gets activated (phosphorylated) by GCN2 in case of an amino acid bottleneck in the cells. This in turn leads to a halt of the protein synthesis. Inhibition of GCN2 results in stopping this mechanism: The cell can not stop protein production upon “starvation” stress.
# The assay is run in two steps: the enzymatic reaction and the detection step. In the first step GCN2 is incubated with 10 μM ATP and 80 nM of the GFP-labelled substrate eIF2alpha at room temperature.
# The enzymatic reaction is stopped by addition of EDTA. The amount of phosphorylated eIF2alpha is determined by TR-FRET (Lanthascreen): A complex is formed consisting of antibody and GFP labelled phospho-eIF2a, which allows a FRET upon exitation at 340 nm.
# The GCN2-activity is directly proportional to the ratio of fluorescence units at the emission wavelengthh 520 nm (phosphopeptide-sensitive wavelength=emission of GFP) to the units at 495 nm (reference wavelength=emission of Terbium-chelate).
# Final Concentrations in the Enzymatic Reaction
# Chain of GCN2 (Q9P2K8 whole entry, species assumed): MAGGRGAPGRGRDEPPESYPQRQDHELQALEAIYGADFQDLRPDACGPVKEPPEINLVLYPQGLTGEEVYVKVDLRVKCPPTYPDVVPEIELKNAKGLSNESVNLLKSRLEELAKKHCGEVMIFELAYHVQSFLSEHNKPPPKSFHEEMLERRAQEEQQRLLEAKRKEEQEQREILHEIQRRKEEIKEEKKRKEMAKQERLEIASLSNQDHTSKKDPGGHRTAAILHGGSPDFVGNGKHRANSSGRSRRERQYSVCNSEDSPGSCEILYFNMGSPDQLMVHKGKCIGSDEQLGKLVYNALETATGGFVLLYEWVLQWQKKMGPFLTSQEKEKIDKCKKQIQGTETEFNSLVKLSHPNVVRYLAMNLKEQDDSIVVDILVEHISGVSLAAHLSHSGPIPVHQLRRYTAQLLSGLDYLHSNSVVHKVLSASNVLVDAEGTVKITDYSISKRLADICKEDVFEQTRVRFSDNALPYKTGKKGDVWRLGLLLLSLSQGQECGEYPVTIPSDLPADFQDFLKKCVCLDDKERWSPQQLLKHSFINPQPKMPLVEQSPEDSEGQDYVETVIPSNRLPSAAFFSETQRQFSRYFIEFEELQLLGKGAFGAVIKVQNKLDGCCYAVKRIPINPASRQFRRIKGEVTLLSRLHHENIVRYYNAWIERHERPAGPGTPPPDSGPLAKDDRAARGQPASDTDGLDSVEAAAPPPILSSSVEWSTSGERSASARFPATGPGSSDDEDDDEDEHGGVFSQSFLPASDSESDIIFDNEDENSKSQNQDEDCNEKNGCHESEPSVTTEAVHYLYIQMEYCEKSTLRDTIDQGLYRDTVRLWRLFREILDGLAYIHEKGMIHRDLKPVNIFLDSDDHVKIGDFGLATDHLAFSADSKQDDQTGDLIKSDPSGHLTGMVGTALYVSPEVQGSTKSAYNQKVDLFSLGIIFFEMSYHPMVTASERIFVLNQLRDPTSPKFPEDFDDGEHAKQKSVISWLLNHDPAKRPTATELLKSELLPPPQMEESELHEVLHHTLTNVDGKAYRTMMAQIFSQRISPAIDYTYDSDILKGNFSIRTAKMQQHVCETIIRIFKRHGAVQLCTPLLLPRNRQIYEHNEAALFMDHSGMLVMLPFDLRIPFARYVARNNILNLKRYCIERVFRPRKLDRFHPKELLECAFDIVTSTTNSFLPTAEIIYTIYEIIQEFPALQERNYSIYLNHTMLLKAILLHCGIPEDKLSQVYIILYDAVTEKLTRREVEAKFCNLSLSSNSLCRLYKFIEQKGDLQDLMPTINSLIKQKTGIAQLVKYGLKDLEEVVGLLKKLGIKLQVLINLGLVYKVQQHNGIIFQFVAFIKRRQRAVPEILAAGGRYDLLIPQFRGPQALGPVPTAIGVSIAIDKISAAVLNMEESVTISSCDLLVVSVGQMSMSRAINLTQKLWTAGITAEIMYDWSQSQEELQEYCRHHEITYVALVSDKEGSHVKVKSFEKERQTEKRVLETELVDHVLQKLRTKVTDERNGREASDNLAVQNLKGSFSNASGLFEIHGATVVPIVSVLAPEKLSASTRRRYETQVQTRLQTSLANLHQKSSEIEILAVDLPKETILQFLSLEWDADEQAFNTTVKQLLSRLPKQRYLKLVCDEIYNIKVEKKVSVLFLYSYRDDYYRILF
row,IC50,Compound
1,300 to 3000 nM,"CC(=O)Nc1ccc(-n2nnc3cnc(Nc4cnn(C[C@@H]5C[C@H]5CO)c4)nc32)cn1 (relative stereo) [Compound A59, N-(5-{5-[1-((trans)-2-hydroxymethyl-cyclopropylmethyl)-1H-pyrazol-4-ylamino]-[1,2,3]triazolo[4,5-d]pyrimidin-3-yl}-pyridin-2-yl)-acetamide]"
2,300 to 3000 nM,"Nc1ccc(-n2nnc3cnc(Nc4cnn(C[C@@H]5C[C@H]5CO)c4)nc32)cn1 (relative stereo) [Compound A60, ((trans)-2-{4-[3-(6-amino-pyridin-3-yl)-3H-[1,2,3]triazolo[4,5-d]pyrimidin-5-ylamino]-pyrazol-1-ylmethyl}-cyclopropyl)-methanol]"
3,< 300 nM,"OC[C@@H]1C[C@H]1Cn1cc(Nc2ncc3nnn(-c4ccc5nccnc5c4)c3n2)cn1 (relative stereo) [Compound A104, {(trans)-2-[4-(3-quinoxalin-6-yl-3H-[1,2,3]triazolo[4,5-d]pyrimidin-5-ylamino)-pyrazol-1-ylmethyl]-cyclopropyl}-methanol]"
4,3000 to 50000 nM,"COc1ccc(-n2nnc3cnc(Nc4ccn(C)n4)nc32)cc1 [Compound A2, [3-(4-methoxy-phenyl)-3H-[1,2,3]triazolo[4,5-d]pyrimidin-5-yl]-(1-methyl-1H-pyrazol-3-yl)-amine]"
5,< 300 nM,"CCOc1ccc(-n2nnc3cnc(Nc4cn[nH]c4)nc32)cc1 [Compound A5, [3-(4-ethoxy-phenyl)-3H-[1,2,3]triazolo[4,5-d]pyrimidin-5-yl]-(1H-pyrazol-4-yl)-amine]"
6,< 300 nM,"CCOc1ccc(-n2nnc3cnc(Nc4cnn(C5CCNCC5)c4)nc32)cc1 [Compound A7, [3-(4-Ethoxy-phenyl)-3H-[1,2,3]triazolo[4,5-d]pyrimidin-5-yl]-(1-piperidin-4-yl-1H-pyrazol-4-yl)-amine]"
7,300 to 3000 nM,"COCCCn1cc(Nc2ncc3nnn(-c4ccc(OC)cc4)c3n2)cn1 [Compound A9, [3-(4-methoxy-phenyl)-3H-[1,2,3]triazolo[4,5-d]pyrimidin-5-yl]-[1-(3-methoxy-propyl)-1H-pyrazol-4-yl]-amine]"
8,3000 to 50000 nM,"COc1ccc(-n2nnc3cnc(Nc4cnn(Cc5ccccc5)c4)nc32)cc1 [Compound A10, (1-benzyl-1H-pyrazol-4-yl)-[3-(4-methoxy-phenyl)-3H-[1,2,3]triazolo[4,5-d]pyrimidin-5-yl]-amine]"
9,3000 to 50000 nM,"COc1ccc(-n2nnc3cnc(/N=C4/N=C(C)CO4)nc32)cc1 [Compound A12, [3-(4-methoxy-phenyl)-3H-[1,2,3]triazolo[4,5-d]pyrimidin-5-yl]-[4-methyl-5H-oxazol-(2Z)-ylidene]-amine]"
10,< 300 nM,"COc1ccc(-n2nnc3cnc(Nc4cnn(C5CCOCC5)c4)nc32)cc1 [Compound A13, [3-(4-methoxy-phenyl)-3H-[1,2,3]triazolo[4,5-d]pyrimidin-5-yl]-[1-(tetrahydro-pyran-4-yl)-1H-pyrazol-4-yl]-amine]"
11,< 300 nM,"COc1ccc(-n2nnc3cnc(Nc4cnn(CCN5CCCC5)c4)nc32)cc1 [Compound A14, [3-(4-methoxy-phenyl)-3H-[1,2,3]triazolo[4,5-d]pyrimidin-5-yl]-[1-(2-pyrrolidin-1-yl-ethyl)-1H-pyrazol-4-yl]-amine]"
12,< 300 nM,"CCOc1ccc(-n2nnc3cnc(Nc4cnn(C5CCOCC5)c4)nc32)cc1 [Compound A15, [3-(4-ethoxy-phenyl)-3H-[1,2,3]triazolo[4,5-d]pyrimidin-5-yl]-[1-(tetrahydro-pyran-4-yl)-1H-pyrazol-4-yl]-amine]"
13,3000 to 50000 nM,"COc1ccc(-n2nnc3cnc(Nc4ncn[nH]4)nc32)cc1 [Compound A17, [3-(4-methoxy-phenyl)-3H-[1,2,3]triazolo[4,5-d]pyrimidin-5-yl]-(2H-[1,2,4]triazol-3-yl)-amine]"
14,< 300 nM,"COc1ccc(-n2nnc3cnc(Nc4cnn(C)c4)nc32)cc1 [Compound A18, [3-(4-methoxy-phenyl)-3H-[1,2,3]triazolo[4,5-d]pyrimidin-5-yl]-(1-methyl-1H-pyrazol-4-yl)-amine]"
15,< 300 nM,"CCOc1ccc(-n2nnc3cnc(Nc4cnn([C@H]5CC[C@@H](O)CC5)c4)nc32)cc1 [Compound A19, 4-{4-[3-(4-ethoxy-phenyl)-3H-[1,2,3]triazolo[4,5-d]pyrimidin-5-ylamino]-pyrazol-1-yl}-cyclohexanol]"
16,< 300 nM,"Fc1ccc(-n2nnc3cnc(Nc4cnn(C5CCOCC5)c4)nc32)cc1 [Compound A20, [3-(4-fluoro-phenyl)-3H-[1,2,3]triazolo[4,5-d]pyrimidin-5-yl]-[1-(tetrahydro-pyran-4-yl)-1H-pyrazol-4-yl]-amine]"
17,< 300 nM,"Cn1cc(Nc2ncc3nnn(-c4cnn(C)c4)c3n2)cn1 [Compound A21, (1-methyl-1H-pyrazol-4-yl)-[3-(1-methyl-1H-pyrazol-4-yl)-3H-[1,2,3]triazolo[4,5-d]pyrimidin-5-yl]-amine]"
18,300 to 3000 nM,"COc1ccc(-n2nnc3cnc(Nc4nc(-c5ccc(NC(C)=O)cc5)cs4)nc32)cc1 [Compound A42, N-[4-[2-[[3-(4-methoxyphenyl)triazolo[4,5-d]pyrimidin-5-yl]amino]thiazol-4-yl]phenyl]acetamide]"
19,< 300 nM,"O=C1CCCN1c1ccc(-n2nnc3cnc(Nc4cnn(C5CCOCC5)c4)nc32)cc1 [Compound A43, 1-[4-[5-[(1-tetrahydropyran-4-ylpyrazol-4-yl)amino]triazolo[4,5-d]pyrimidin-3-yl]phenyl]pyrrolidin-2-one]"
20,< 300 nM,"COCCCn1cc(Nc2ncc3nnn(-c4ccc(Cl)c(F)c4)c3n2)cn1 [Compound A50, [3-(4-chloro-3-fluoro-phenyl)-3H-[1,2.3]triazolo[4,5-d]pyrimidin-5-yl]-[1-(3-methoxy-propyl)-1H-pyrazol-4-yl]-amine]"
21,< 300 nM,"CN1CCC(n2cc(Nc3ncc4nnn(-c5cnc6ccccc6c5)c4n3)cn2)CC1 [Compound A52, [1-(1-methyl-piperidin-4-yl)-1H-pyrazol-4-yl]-(3-quinolin-3-yl-3H-[1,2,3]triazolo[4,5-d]pyrimidin-5-yl)-amine]"
22,< 300 nM,"CCn1cc(Nc2ncc3nnn(-c4ccc(NC(C)=O)nc4)c3n2)cn1 [Compound A58, N-{5-[5-(1-ethyl-1H-pyrazol-4-ylamino)-[1,2,3]triazolo[4,5-d]pyrimidin-3-yl]-pyridin-2-yl}-acetamide]"
23,< 300 nM,"CCn1cc(Nc2ncc3nnn(-c4cnc5ccccc5c4)c3n2)cn1 [Compound A61, (1-ethyl-1H-pyrazol-4-yl)-(3-quinolin-3-yl-3H-[1,2,3]triazolo[4,5-d]pyrimidin-5-yl)-amine]"
24,< 300 nM,"CCn1cc(Nc2ncc3nnn(-c4ccnc(OC)c4)c3n2)cn1 [Compound A62, (1-ethyl-1H-pyrazol-4-yl)-[3-(2-methoxy-pyridin-4-yl)-3H-[1,2,3]triazolo[4,5-d]pyrimidin-5-yl]-amine]"
25,< 300 nM,"CCn1cc(Nc2ncc3nnn(-c4ccc(F)cc4)c3n2)cn1 [Compound A63, (1-ethyl-1H-pyrazol-4-yl)-[3-(4-fluoro-phenyl)-3H-[1,2,3]triazolo[4,5-d]pyrimidin-5-yl]-amine]"
26,< 300 nM,"CCOc1ccc(-n2nnc3cnc(Nc4cnn(-c5ccccc5)c4)nc32)cc1 [Compound A64, [3-(4-ethoxy-phenyl)-3H-[1,2,3]triazolo[4,5-d]pyrimidin-5-yl]-(1-phenyl-1H-pyrazol-4-yl)-amine]"
27,< 300 nM,"CCn1cc(Nc2ncc3nnn(-c4ccc(O)cc4)c3n2)cn1 [Compound A66, 4-[5-(1-ethyl-1H-pyrazol-4-ylamino)-[1,2,3]triazolo[4,5-d]pyrimidin-3-yl]-phenol]"
28,300 to 3000 nM,"CCn1cc(Nc2ncc3nnn(-c4ccc(F)cc4C#N)c3n2)cn1 [Compound A72, 2-[5-(1-ethyl-1H-pyrazol-4-ylamino)-[1,2,3]triazolo[4,5-d]pyrimidin-3-yl]-5-fluoro-benzonitrile]"

row,Compound,IC50
1,"CCCCOc1ccc(-n2nnc3cnc(Nc4cnn(C5CCN(C)CC5)c4)nc32)cn1 [Compound A45, [3-(6-butoxy-pyridin-3-yl)-3H-[1,2,3]triazolo[4,5-d]pyrimidin-5-yl]-[1-(1-methyl-piperidin-4-yl)-1H-pyrazol-4-yl]-amine]",300 to 3000 nM
2,"CCCCOc1ccc(-n2nnc3cnc(Nc4cnn(C5CCOCC5)c4)nc32)cn1 [Compound A47, [3-(6-butoxy-pyridin-3-yl)-3H-[1,2,3]triazolo[4,5-d]pyrimidin-5-yl]-[1-(tetrahydro-pyran-4-yl)-1H-pyrazol-4-yl]-amine]",300 to 3000 nM
3,"CC(C)(C)OCCn1cc(Nc2ncc3nnn(-c4ccc(Cl)c(F)c4)c3n2)cn1 [Compound A53, [1-(2-tert-butoxy-ethyl)-1H-pyrazol-4-yl]-[3-(4-chloro-3-fluoro-phenyl)-3H-[1,2,3]triazolo[4,5-d]pyrimidin-5-yl]-amine]",300 to 3000 nM
4,"CCCCOc1ccc(-n2nnc3cnc(Nc4cnn(CCC5CCNCC5)c4)nc32)cn1 [Compound A55, [3-(6-butoxy-pyridin-3-yl)-3H-[1,2,3]triazolo[4,5-d]pyrimidin-5-yl]-[1-(2-piperidin-4-yl-ethyl)-1H-pyrazol-4-yl]-amine]",300 to 3000 nM
5,"CCCCOc1ccc(-n2nnc3cnc(Nc4cnn(CC)c4)nc32)cn1 [Compound A57, [3-(6-butoxy-pyridin-3-yl)-3H-[1,2,3]triazolo[4,5-d]-pyrimidin-5-yl]-(1-ethyl-1H-pyrazol-4-yl)-amine]",300 to 3000 nM
